# Results: the supplement of paper PMC11208160
# Experiment: recombinant barcode read abundance after kanamycin selection (control-corrected) (log10(CPM+1)); higher = more efficient recombination; sequences stand for … in AGTGCAGAGAAAATCGGCCAGTTTTCTCTGCCTGCAGTCCGCATGCCGT…AGATTTATGCAGCGGACTGCCTTTCTCCCAAAGTGATAAACCGGACAGTATCATGGACCGGTTTTCCCGGTAATCCGTATTTGCAAGGTTGGTTTCACT; site = the 11-nt target
# How it was run: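 The screen was pooled in E. coli and paired targets with IS621 bridge RNA target-binding loops. Recombination efficiency is taken from barcode counts per million at recombinant junctions, averaged and adjusted against the control. Values, in the form log10(CPM+1), come from duplicate plating on chloramphenicol/ampicillin LB agar or on chloramphenicol/ampicillin/kanamycin with 0.1 mM IPTG.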
# 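Further: IS621 recombinase and bridge RNA in Escherichia coli cells.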
row,Sequence,recombinant barcode read abundance (log10)
1,CCGCATGCTTGGGTTCTAACCTGTTGCCT (site CCGGATGCTAG),0.0172
2,CCGCATGCTTGGGTTCTAACCTGTTGCCT (site CCGTATGCTAG),0.0765
3,CCGCCTCCTTGGGTTCTAACCTGTTGCAT (site CCGCCTCCTAT),0.0412
4,CCGCCTCCTTGGGTTCTAACCTGTTGCAT (site CGTCCTCCTAT),0.26
5,CCGCGGACTTGGGTTCTAACCTGTTGCTA (site CCGCGGACTTA),0.989
6,CCGCGGACTTGGGTTCTAACCTGTTGCTA (site TAAAACCCTAT),0.0107
7,CCGCGGACTTGGGTTCTAACCTGTTGCTT (site CCGCAGACTAA),0.106
8,CCGCGGACTTGGGTTCTAACCTGTTGCTT (site CCGCGGACTAA),0.578
9,CCGGCCACTTGGGTTCTAACCTGTTGCCT (site CAGGCCACTAG),0.359
10,CCGGCCACTTGGGTTCTAACCTGTTGCCT (site CCGGCCACTAG),1.82
11,CCGGCCACTTGGGTTCTAACCTGTTGCCT (site CGGGCCACTAG),0.164
12,CCGGCCACTTGGGTTCTAACCTGTTGCCT (site CTGGCCACTAG),0.155
13,CCGGGATCTTGGGTTCTAACCTGTTGCCT (site ACGGGATCTAG),0.323
14,CCGGGATCTTGGGTTCTAACCTGTTGCCT (site CCGGGATCTAG),1.22
15,CCGGGATCTTGGGTTCTAACCTGTTGCCT (site GCGGGATCTAG),0.161
16,CCGGGATCTTGGGTTCTAACCTGTTGCCT (site TCGGGATCTAG),0.231
17,CCGGGTACTTGGGTTCTAACCTGTTGCCG (site AGCAACCCTTT),0.0127
18,CCGGGTACTTGGGTTCTAACCTGTTGCCG (site CCGGGTACTCG),1.66
19,CCGGTGACTTGGGTTCTAACCTGTTGCCT (site ACGGTGACTAG),0.0889
20,CCGGTGACTTGGGTTCTAACCTGTTGCCT (site CCGGTGACTAG),0.743
21,CCGGTGACTTGGGTTCTAACCTGTTGCCT (site GCGGTGACTAG),0.146
22,CCGGTGACTTGGGTTCTAACCTGTTGCCT (site TCGGTGACTAG),0.0596
23,CCGGTTGCTTGGGTTCTAACCTGTTGCCT (site CCGGATTCTAG),0.0357
24,CCGGTTGCTTGGGTTCTAACCTGTTGCCT (site CCGGTTGCTAG),2.76
25,CCGTCTACTTGGGTTCTAACCTGTTGCTT (site CCGTCTACTAA),0.107
26,CCGTCTACTTGGGTTCTAACCTGTTGCTT (site CCGTCTACTCA),0.457

row,Sequence,recombinant barcode read abundance (log10)
1,CCGTCTACTTGGGTTCTAACCTGTTGCTT (site CCGTCTACTGA),0.0444
2,CCGTCTACTTGGGTTCTAACCTGTTGCTT (site CCGTCTACTTA),0.201
3,CCGTGAACTTGGGTTCTAACCTGTTGCCT (site CAGTGAACTAG),0.0153
4,CCGTGAACTTGGGTTCTAACCTGTTGCCT (site CCGTGAACTAG),0.275
5,CCGTGAACTTGGGTTCTAACCTGTTGCCT (site CGGTGAACTAG),0.0382
6,CCGTGAACTTGGGTTCTAACCTGTTGCCT (site CTGTGAACTAG),0.163
7,CCGTGGACTTGGGTTCTAACCTGTTGCCA (site CAGGGGACTTG),0.111
8,CCGTGGACTTGGGTTCTAACCTGTTGCCA (site CCGTGGACTTG),0.42
9,CCTAAACCTTGGGTTCTAACCTGTTGCGT (site CCTAAACCTAC),1.63
10,CCTAAACCTTGGGTTCTAACCTGTTGCGT (site CCTAACCCTAC),0.0278
11,CCTAAACCTTGGGTTCTAACCTGTTGCGT (site CCTAAGCCTAC),0.03
12,CCTAAACCTTGGGTTCTAACCTGTTGCGT (site CCTAATCCTAC),0.0605
13,CCTAACACTTGGGTTCTAACCTGTTGCCT (site ACTAACACTAG),0.0635
14,CCTAACACTTGGGTTCTAACCTGTTGCCT (site CCTAACACTAG),0.501
15,CCTAACACTTGGGTTCTAACCTGTTGCCT (site GCTAACACTAG),0.0372
16,CCTAACACTTGGGTTCTAACCTGTTGCCT (site TCTAACACTAG),0.114
17,CCTACACCTTGGGTTCTAACCTGTTGCCT (site CCTACAACTAG),0.0638
18,CCTACACCTTGGGTTCTAACCTGTTGCCT (site CCTACACCTAG),0.928
19,CCTACACCTTGGGTTCTAACCTGTTGCCT (site CCTACAGCTAG),0.0384
20,CCTACACCTTGGGTTCTAACCTGTTGCCT (site CCTACATCTAG),0.52
21,CCTAGACCTTGGGTTCTAACCTGTTGCCT (site CCTAGAACTAG),0.067
22,CCTAGACCTTGGGTTCTAACCTGTTGCCT (site CCTAGACCTAG),0.771
23,CCTAGACCTTGGGTTCTAACCTGTTGCCT (site CCTAGAGCTAG),0.201
24,CCTAGACCTTGGGTTCTAACCTGTTGCCT (site CCTAGATCTAG),0.312
25,CCTAGCACTTGGGTTCTAACCTGTTGCGA (site CCTAGCACTTC),0.939
26,CCTAGCACTTGGGTTCTAACCTGTTGCGA (site CCTCGCACTTC),0.0896

row,Sequence,recombinant barcode read abundance (log10)
1,CCTAGCACTTGGGTTCTAACCTGTTGCGA (site CCTGGCACTTC),0.0943
2,CCTAGCACTTGGGTTCTAACCTGTTGCGA (site CCTTGCACTTC),0.0494
3,CCTATAGCTTGGGTTCTAACCTGTTGCTT (site CCTATAGCTAA),0.0878
4,CCTATAGCTTGGGTTCTAACCTGTTGCTT (site GAGTCTACTTG),0.0203
5,CCTCAGGCTTGGGTTCTAACCTGTTGCCT (site CCTCAGGCTAG),0.106
6,CCTCAGGCTTGGGTTCTAACCTGTTGCCT (site CCTCAGGCTCG),0.0672
7,CCTCAGGCTTGGGTTCTAACCTGTTGCCT (site CCTCAGGCTGG),0.107
8,CCTCAGGCTTGGGTTCTAACCTGTTGCCT (site CCTCAGGCTTG),0.204
9,CCTCAGTCTTGGGTTCTAACCTGTTGCTT (site CCTCAATCTAA),0.441
10,CCTCAGTCTTGGGTTCTAACCTGTTGCTT (site CCTCACTCTAA),0.0235
11,CCTCAGTCTTGGGTTCTAACCTGTTGCTT (site CCTCAGTCTAA),1.68
12,CCTCAGTCTTGGGTTCTAACCTGTTGCTT (site CCTCATTCTAA),0.122
13,CCTCGAGCTTGGGTTCTAACCTGTTGCGG (site CCTCGAGCTCC),1.86
14,CCTCGAGCTTGGGTTCTAACCTGTTGCGG (site TCTAGAGCTCC),0.184
15,CCTCGCACTTGGGTTCTAACCTGTTGCGA (site CCTAGCACTTC),0.126
16,CCTCGCACTTGGGTTCTAACCTGTTGCGA (site CCTCGCACTTC),0.112
17,CCTCGCACTTGGGTTCTAACCTGTTGCGA (site CCTGGCACTTC),0.0155
18,CCTCGCACTTGGGTTCTAACCTGTTGCGA (site CCTTGCACTTC),0.0861
19,CCTCGCGCTTGGGTTCTAACCTGTTGCCT (site CCTAACGCTAG),0.822
20,CCTCGCGCTTGGGTTCTAACCTGTTGCCT (site CCTCGCGCTAG),0.354
21,CCTCGGACTTGGGTTCTAACCTGTTGCAT (site CATCGTACTAT),0.0825
22,CCTCGGACTTGGGTTCTAACCTGTTGCAT (site CCTCGGACTAT),1.59
23,CCTGATTCTTGGGTTCTAACCTGTTGCCT (site CCTGAATCTAG),0.0629
24,CCTGATTCTTGGGTTCTAACCTGTTGCCT (site CCTGACTCTAG),0.113
25,CCTGATTCTTGGGTTCTAACCTGTTGCCT (site CCTGAGTCTAG),0.107
